In US20070172957A1, “Methods of identifying anti-inflammatory macrolides” (TAISHO PHARMACEUTICAL CO., LTD., priority 2004, published 2007):

System: genes predictive for the anti-inflammatory macrolide effect
Assay: Genes statistically predictive of Clari response: differentially expressed with Clari but not the inactive macrolides MAA or Josa (Appendix E)
Format: cell-based
Source text: In the case of the above-mentioned (i) related to arachidonic acid biosynthesis, specifically, methods of the embodiment involve assaying whether a test macrolide alters biosynthesis of arachidonic acid, alters the expression or activities of enzymes involved in the biosynthesis or activation of arachidonic acid (e.g., arachidonic acid CoA synthetase, delta-6 desaturase, fatty acid elongase, and delta-5 desaturase, AA-related genes in Tables 2 and 3), or alters the expression of genes identified as predictive for the anti-inflammatory macrolide effect (Appendix E). Assays in which arachidonic acid or gene expression or enzymatic activity is detected can be carried out after contacting a cell with a test macrolide. Any cell line that secretes prostaglandin or produces arachidonic acid can be used. Epithelial and macrophages lines (e.g., A549 or THP-1) are suitable for this purpose; other cell lines can be identified by carrying out assays such as those described in the specific Examples, below. Alternatively, screening assays can be carried out after adding a test macrolide to an in vitro cell system (e.g., a cellular extract or liver microsome preparation) or an in vitro enzyme assay system.

## CO[C@@H]1[C@@H](O[C@@H]2O[C@H](C)[C@@H](O[C@H]3C[C@@](C)(O)[C@@H](OC(=O)CC(C)C)[C@H](C)O3)[C@H](N(C)C)[C@H]2O)[C@@H](CC=O)C[C@@H](C)[C@@H](O)/C=C/C=C/C[C@@H](C)OC(=O)C[C@H]1OC(C)=O [josamycin]
SpotID 46579, MAA and Josa vs. Clari
  group mean, gene SERPING1: 1.03
SpotID 46586, MAA and Josa vs. Clari
  group mean, gene C12orf8: 0.98
SpotID 46633, pooled group mean
  mean group, FLJ20699: 1.00
SpotID 46648, pooled group mean
  mean group, ARHGAP1: 1.07
SpotID 46679, MAA and Josa vs. Clari
  group mean, gene KIAA1172: 1.04
SpotID 46679, pooled group mean
  mean group, KIAA1172: 1.04
SpotID 46825, MAA and Josa vs. Clari
  group mean, gene MKNK2: 0.94
SpotID 46825, pooled group mean
  mean group, MKNK2: 0.94
SpotID 46838, MAA and Josa vs. Clari
  group mean, gene PRKAR1A: 1.04
SpotID 46843, MAA and Josa vs. Clari
  group mean, gene ARHGDIA: 1.08
SpotID 46843, pooled group mean
  mean group, ARHGDIA: 1.08
SpotID 46882, MAA and Josa vs. Clari
  group mean, gene HEXA: 0.97
SpotID 46896, MAA and Josa vs. Clari
  group mean, gene CDIPT: 0.91
SpotID 46896, pooled group mean
  mean group, CDIPT: 0.91
SpotID 46923, pooled group mean
  mean group, PACE: 1.00
SpotID 46935, MAA and Josa vs. Clari
  group mean, gene METAP2: 1.05
SpotID 46935, pooled group mean
  mean group, METAP2: 1.05
SpotID 46979, MAA and Josa vs. Clari
  group mean, gene HSPBP1: 1.02
SpotID 46988, pooled group mean
  mean group, EREG: 1.11
SpotID 46991, MAA and Josa vs. Clari
  group mean, gene TFPI2: 1.00
SpotID 47034, MAA and Josa vs. Clari
  group mean, gene C2orf3: 1.01
SpotID 47034, pooled group mean
  mean group, C2orf3: 1.01
SpotID 47056, MAA and Josa vs. Clari
  group mean, gene NFRKB: 0.96
SpotID 47111, MAA and Josa vs. Clari
  group mean, gene GOLGB1: 1.01
SpotID 47123, MAA and Josa vs. Clari
  group mean, gene MCM2: 0.97
SpotID 47131, MAA and Josa vs. Clari
  group mean, gene KIAA0251: 0.92
SpotID 47192, MAA and Josa vs. Clari
  group mean, gene ARHGAP1: 1.10
SpotID 47212, MAA and Josa vs. Clari
  group mean, gene ITGB5: 0.94
SpotID 47241, pooled group mean
  mean group, NUBP1: 1.04
SpotID 47249, MAA and Josa vs. Clari
  group mean, gene AKR1A1: 0.93
SpotID 47251, MAA and Josa vs. Clari
  group mean, gene HKE4: 0.94
SpotID 47314, pooled group mean
  mean group, EPOR: 0.99
SpotID 47352, MAA and Josa vs. Clari
  group mean, gene ADAM11: 0.93
SpotID 47352, pooled group mean
  mean group, ADAM11: 0.93
SpotID 47354, MAA and Josa vs. Clari
  group mean, gene ERF: 1.15
SpotID 47366, pooled group mean
  mean group, P4HB: 1.05
SpotID 47406, MAA and Josa vs. Clari
  group mean, gene MTHFD1: 1.12
SpotID 47415, pooled group mean
  mean group, CETN2: 1.06
SpotID 47418, MAA and Josa vs. Clari
  group mean, gene SNK: 1.03
SpotID 47418, pooled group mean
  mean group, SNK: 1.03
SpotID 47432, pooled group mean
  mean group, GCS1: 0.90
SpotID 47439, MAA and Josa vs. Clari
  group mean, gene DCTN1: 1.04
SpotID 47439, pooled group mean
  mean group, DCTN1: 1.04
SpotID 47446, MAA and Josa vs. Clari
  group mean, gene RANBP1: 1.04
SpotID 47446, pooled group mean
  mean group, RANBP1: 1.04
SpotID 47504, pooled group mean
  mean group, MSH3: 1.09
SpotID 47522, pooled group mean
  mean group, SERPINA1: 1.04
SpotID 47524, MAA and Josa vs. Clari
  group mean, gene PTK2B: 1.34
SpotID 47535, MAA and Josa vs. Clari
  group mean, gene ARHGDIA: 1.08
SpotID 47622, MAA and Josa vs. Clari
  group mean, gene TRAP1: 1.09
SpotID 47622, pooled group mean
  mean group, TRAP1: 1.09
SpotID 47661, MAA and Josa vs. Clari
  group mean, gene HSPA9B: 1.10
SpotID 47679, pooled group mean
  mean group, NR4A2: 0.95
SpotID 47694, MAA and Josa vs. Clari
  group mean, gene HSPA9B: 1.09
SpotID 47694, pooled group mean
  mean group, HSPA9B: 1.09
SpotID 47705, MAA and Josa vs. Clari
  group mean, gene MAD4: 0.97
SpotID 47754, MAA and Josa vs. Clari
  group mean, gene NBS1: 1.18
SpotID 47754, pooled group mean
  mean group, NBS1: 1.18
SpotID 47755, MAA and Josa vs. Clari
  group mean, gene KIAA1922: 1.14
SpotID 47776, MAA and Josa vs. Clari
  group mean, gene POLA: 1.02
SpotID 47776, pooled group mean
  mean group, POLA: 1.02
SpotID 47793, MAA and Josa vs. Clari
  group mean, gene BET3: 0.95
SpotID 47802, MAA and Josa vs. Clari
  group mean, gene GOT1: 1.02
SpotID 47802, pooled group mean
  mean group, GOT1: 1.02
SpotID 47811, MAA and Josa vs. Clari
  group mean, gene ENTPD6: 0.93
SpotID 47811, pooled group mean
  mean group, ENTPD6: 0.93
SpotID 47846, pooled group mean
  mean group, SSI-1: 1.03
SpotID 47850, MAA and Josa vs. Clari
  group mean, gene PRLR: 1.09
SpotID 47850, pooled group mean
  mean group, PRLR: 1.09
SpotID 47898, MAA and Josa vs. Clari
  group mean, gene ERF: 1.14
SpotID 47911, MAA and Josa vs. Clari
  group mean, gene YWHAE: 1.04
SpotID 47926, MAA and Josa vs. Clari
  group mean, gene CCNE2: 0.98
SpotID 47935, MAA and Josa vs. Clari
  group mean, gene P4HA1: 0.95
SpotID 47935, pooled group mean
  mean group, P4HA1: 0.95
SpotID 47937, MAA and Josa vs. Clari
  group mean, gene CTSB: 0.98
SpotID 47939, MAA and Josa vs. Clari
  group mean, gene INPP5E: 0.99
SpotID 47947, MAA and Josa vs. Clari
  group mean, gene SF3B3: 1.10
SpotID 47949, MAA and Josa vs. Clari
  group mean, gene BCKDK: 1.07
SpotID 47950, MAA and Josa vs. Clari
  group mean, gene DNASE1L1: 0.96
SpotID 47950, pooled group mean
  mean group, DNASE1L1: 0.96
SpotID 47951, MAA and Josa vs. Clari
  group mean, gene COX15: 1.05
SpotID 47973, pooled group mean
  mean group, USF2: 0.96
SpotID 47987, MAA and Josa vs. Clari
  group mean, gene THBS1: 1.02
SpotID 47987, pooled group mean
  mean group, THBS1: 1.02
SpotID 47988, pooled group mean
  mean group, RPN2: 0.93
SpotID 47995, MAA and Josa vs. Clari
  group mean, gene PTGER1: 1.00
SpotID 48000, MAA and Josa vs. Clari
  group mean, gene CTSH: 0.93
SpotID 48004, pooled group mean
  mean group, CUTL1: 1.22
SpotID 48006, MAA and Josa vs. Clari
  group mean, gene BCL2L2: 0.86
SpotID 48026, pooled group mean
  mean group, SRF: 0.94
SpotID 48121, MAA and Josa vs. Clari
  group mean, gene SCN1B: 0.90
SpotID 48137, pooled group mean
  mean group, FRDA: 1.03
SpotID 48149, MAA and Josa vs. Clari
  group mean, gene SFRS7: 0.98
SpotID 48149, pooled group mean
  mean group, SFRS7: 0.98
SpotID 48160, MAA and Josa vs. Clari
  group mean, gene ZAP3: 1.08
SpotID 48160, pooled group mean
  mean group, ZAP3: 1.08
SpotID 48182, MAA and Josa vs. Clari
  group mean, gene SNAPC1: 1.00
SpotID 48192, MAA and Josa vs. Clari
  group mean, gene OPA1: 1.02
SpotID 48214, MAA and Josa vs. Clari
  group mean, gene BAT8: 1.02
SpotID 48233, MAA and Josa vs. Clari
  group mean, gene MAPK12: 0.88
SpotID 48233, pooled group mean
  mean group, MAPK12: 0.88
SpotID 48235, MAA and Josa vs. Clari
  group mean, gene DAXX: 1.02
SpotID 48266, MAA and Josa vs. Clari
  group mean, gene GRB2: 0.93
SpotID 48266, pooled group mean
  mean group, GRB2: 0.93
SpotID 48280, MAA and Josa vs. Clari
  group mean, gene ARHC: 0.90
SpotID 48301, MAA and Josa vs. Clari
  group mean, gene GCN5L1: 0.93
SpotID 48301, pooled group mean
  mean group, GCN5L1: 0.93
SpotID 48328, MAA and Josa vs. Clari
  group mean, gene FN1: 1.00
SpotID 48333, MAA and Josa vs. Clari
  group mean, gene DNMT1: 0.97
SpotID 48345, pooled group mean
  mean group, CCT3: 0.97
SpotID 48348, MAA and Josa vs. Clari
  group mean, gene FN1: 1.00
SpotID 48363, MAA and Josa vs. Clari
  group mean, gene CNOT2: 1.03
SpotID 48365, MAA and Josa vs. Clari
  group mean, gene MAPK9: 1.04
SpotID 48365, pooled group mean
  mean group, MAPK9: 1.04
SpotID 48396, MAA and Josa vs. Clari
  group mean, gene CNOT2: 1.04
SpotID 48397, MAA and Josa vs. Clari
  group mean, gene HIF1A: 1.09
SpotID 48411, MAA and Josa vs. Clari
  group mean, gene MGEA5: 0.97
SpotID 48411, pooled group mean
  mean group, MGEA5: 0.97
SpotID 48415, MAA and Josa vs. Clari
  group mean, gene SERPINB1: 1.02
SpotID 48415, pooled group mean
  mean group, SERPINB1: 1.02
SpotID 48451, MAA and Josa vs. Clari
  group mean, gene M6PR: 0.97
SpotID 48456, MAA and Josa vs. Clari
  group mean, gene DDC: 1.12
SpotID 48456, pooled group mean
  mean group, DDC: 1.12
SpotID 48461, pooled group mean
  mean group, BARD1: 0.98
SpotID 48470, MAA and Josa vs. Clari
  group mean, gene MCM5: 0.97
SpotID 48471, MAA and Josa vs. Clari
  group mean, gene RBM3: 1.06
SpotID 48486 (gene symbol not given), pooled group mean
  mean group, SpotID 48486: 1.21
SpotID 48500, MAA and Josa vs. Clari
  group mean, gene RPL13A: 1.05
SpotID 48500, pooled group mean
  mean group, RPL13A: 1.05
SpotID 48508, MAA and Josa vs. Clari
  group mean, gene USP24: 1.03
SpotID 48521, MAA and Josa vs. Clari
  group mean, gene ARAF1: 1.12
SpotID 48521, pooled group mean
  mean group, ARAF1: 1.12
SpotID 48530, MAA and Josa vs. Clari
  group mean, gene APLP2: 0.95
SpotID 48530, pooled group mean
  mean group, APLP2: 0.95
SpotID 48557, pooled group mean
  mean group, NFE2L1: 0.97
SpotID 48620, pooled group mean
  mean group, XBP1: 0.98
SpotID 48643, MAA and Josa vs. Clari
  group mean, gene DIP2: 1.00
SpotID 48644, MAA and Josa vs. Clari
  group mean, gene KIAA0323: 1.01
SpotID 48646, MAA and Josa vs. Clari
  group mean, gene SDCBP: 0.97
SpotID 48646, pooled group mean
  mean group, SDCBP: 0.97
SpotID 48654, pooled group mean
  mean group, FECH: 1.05
SpotID 48672, MAA and Josa vs. Clari
  group mean, gene CHK: 0.87
SpotID 48693, MAA and Josa vs. Clari
  group mean, gene HSPBP1: 1.04
SpotID 48693, pooled group mean
  mean group, HSPBP1: 1.04
SpotID 48705, MAA and Josa vs. Clari
  group mean, gene SIGIRR: 0.97
SpotID 48707, MAA and Josa vs. Clari
  group mean, gene P4HA1: 0.97
SpotID 48707, pooled group mean
  mean group, P4HA1: 0.97
SpotID 48713, MAA and Josa vs. Clari
  group mean, gene MKNK2: 0.96
SpotID 48717, pooled group mean
  mean group, PPP3CB: 1.09
SpotID 48725, MAA and Josa vs. Clari
  group mean, gene IKKE: 0.84
SpotID 48725, pooled group mean
  mean group, IKKE: 0.84
SpotID 48732, pooled group mean
  mean group, RALA: 0.98
SpotID 48747, pooled group mean
  mean group, MAFB: 1.14
SpotID 48804, MAA and Josa vs. Clari
  group mean, gene KIAA0217: 1.01
SpotID 48804, pooled group mean
  mean group, KIAA0217: 1.01
